# Test results from ChEMBL document CHEMBL5512614, “Annual review of PROTAC degraders as anticancer agents in 2022” (Eur J Med Chem, 2024).
# Columns and labels:
# CWR22R = assay: Inhibition of cell growth in human 22Rv1 cells; type: functional, cell-based
# [1] = target: Cyclin-dependent kinase 9 (Homo sapiens, UniProt P50750); assay: Induction of CDK9 degradation in human 22Rv1 cells; type: cell-based
# Cyclin-T1 = Cyclin-T1 (Homo sapiens, UniProt O60563); assay: Induction of Cyclin T1 degradation in human 22Rv1 cells; type: cell-based
# [2] = target: Bromodomain-containing protein 4 (Homo sapiens, UniProt O60885); assay: Inhibition of BRD4 in HEK293T cells; type: cell-based
# [3] = target: T1, Protein fem-1 homolog B/Bromodomain-containing protein 4 (Homo sapiens, UniProt O60885+Q9UK73); assay: PROTAC activity at FEM1B/BRD4 in HEK293T cells assessed as protein degradation relative to control; type: cell-based
# T1 sequence (Q9UK73 whole entry, looked up, other chains not shown): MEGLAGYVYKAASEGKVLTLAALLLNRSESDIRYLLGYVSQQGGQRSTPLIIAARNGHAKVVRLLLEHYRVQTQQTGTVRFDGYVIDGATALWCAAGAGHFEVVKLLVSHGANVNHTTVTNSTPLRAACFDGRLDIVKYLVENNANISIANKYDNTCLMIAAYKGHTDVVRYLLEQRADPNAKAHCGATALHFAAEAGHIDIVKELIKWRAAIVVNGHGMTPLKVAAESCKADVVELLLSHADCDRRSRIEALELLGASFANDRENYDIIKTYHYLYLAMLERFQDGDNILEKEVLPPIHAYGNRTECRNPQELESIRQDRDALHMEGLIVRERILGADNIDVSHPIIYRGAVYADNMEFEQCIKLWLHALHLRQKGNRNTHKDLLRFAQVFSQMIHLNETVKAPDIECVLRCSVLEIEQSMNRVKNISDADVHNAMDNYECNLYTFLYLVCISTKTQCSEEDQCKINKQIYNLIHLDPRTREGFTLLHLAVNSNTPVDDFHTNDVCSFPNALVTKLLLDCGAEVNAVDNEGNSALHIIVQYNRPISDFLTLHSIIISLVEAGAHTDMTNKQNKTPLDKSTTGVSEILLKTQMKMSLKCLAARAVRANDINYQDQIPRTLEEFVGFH
# [4] = target: T1, Protein fem-1 homolog B/Bromodomain-containing protein 4; assay: PROTAC activity at FEM1B/BRD4 in HEK293T cells assessed as protein degradation; type: cell-based
# [5] = target: T2, Epidermal growth factor receptor (Homo sapiens, UniProt P00533); assay: Inhibition of wild-type EGFR in human A549 cells; type: cell-based
# T2 sequence (P00533 whole entry): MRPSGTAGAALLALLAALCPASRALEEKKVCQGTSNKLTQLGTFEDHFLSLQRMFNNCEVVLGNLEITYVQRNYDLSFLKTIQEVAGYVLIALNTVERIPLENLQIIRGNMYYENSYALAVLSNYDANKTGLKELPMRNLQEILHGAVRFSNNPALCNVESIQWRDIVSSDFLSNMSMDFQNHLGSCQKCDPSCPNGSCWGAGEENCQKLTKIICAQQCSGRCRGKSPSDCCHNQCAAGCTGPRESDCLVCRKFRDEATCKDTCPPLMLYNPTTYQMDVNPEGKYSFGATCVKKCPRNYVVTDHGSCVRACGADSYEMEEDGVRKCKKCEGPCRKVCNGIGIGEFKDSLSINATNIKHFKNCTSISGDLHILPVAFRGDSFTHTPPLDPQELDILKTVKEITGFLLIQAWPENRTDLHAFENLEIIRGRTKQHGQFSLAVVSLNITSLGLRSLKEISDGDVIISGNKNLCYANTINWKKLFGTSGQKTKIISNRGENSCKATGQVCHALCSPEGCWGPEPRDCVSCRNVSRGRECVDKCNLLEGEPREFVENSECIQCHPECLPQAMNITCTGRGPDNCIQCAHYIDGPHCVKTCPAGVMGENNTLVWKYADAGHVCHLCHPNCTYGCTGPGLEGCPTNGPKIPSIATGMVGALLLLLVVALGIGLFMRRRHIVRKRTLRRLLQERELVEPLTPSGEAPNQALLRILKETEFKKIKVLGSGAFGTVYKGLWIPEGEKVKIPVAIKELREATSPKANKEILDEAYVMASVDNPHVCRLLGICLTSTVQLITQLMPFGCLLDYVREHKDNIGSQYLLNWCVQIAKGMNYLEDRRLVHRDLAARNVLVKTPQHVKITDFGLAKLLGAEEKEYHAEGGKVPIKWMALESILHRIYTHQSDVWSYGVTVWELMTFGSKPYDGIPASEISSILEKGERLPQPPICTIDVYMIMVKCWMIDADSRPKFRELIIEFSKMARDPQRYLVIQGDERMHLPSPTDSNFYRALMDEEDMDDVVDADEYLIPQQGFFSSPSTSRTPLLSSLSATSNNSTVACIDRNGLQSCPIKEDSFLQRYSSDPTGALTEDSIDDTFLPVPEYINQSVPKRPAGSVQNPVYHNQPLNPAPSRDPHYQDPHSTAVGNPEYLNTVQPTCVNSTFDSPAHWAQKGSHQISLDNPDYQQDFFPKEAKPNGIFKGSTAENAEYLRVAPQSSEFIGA
# [6] = target: T2, Epidermal growth factor receptor; assay: Inhibition of wild-type EGFR in human A-431 cells; type: cell-based
# [7] = Inhibition of EGFR L858R/790M mutant in human NCI-H1975 cells; type: cell-based
# [8] = target: von Hippel-Lindau disease tumor suppressor/Epidermal growth factor receptor (Homo sapiens, UniProt P00533+P40337); assay: PROTAC activity at VHL/EGFR del19 mutant in human HCC827 cells assessed as protein degradation; type: cell-based
# [9] = test system: von Hippel-Lindau disease tumor suppressor/Epidermal growth factor receptor (Homo sapiens), P00533+P40337 [UNDEFINED MUTATION]; assay: PROTAC activity at VHL/EGFR del19 mutant in human HCC827 cells assessed as protein degradation relative to control; type: cell-based
# [10] = Inhibition of EGFR del19 mutant in human HCC827 cells; type: cell-based
# Focal adhesion kinase 1 = Focal adhesion kinase 1 (Homo sapiens, UniProt Q05397); assay: Inhibition of FAK (unknown origin) incubated for 50 mins in presence of substrate/ATP by HTRF assay
# Chain of Focal adhesion kinase 1 (Q05397 whole entry): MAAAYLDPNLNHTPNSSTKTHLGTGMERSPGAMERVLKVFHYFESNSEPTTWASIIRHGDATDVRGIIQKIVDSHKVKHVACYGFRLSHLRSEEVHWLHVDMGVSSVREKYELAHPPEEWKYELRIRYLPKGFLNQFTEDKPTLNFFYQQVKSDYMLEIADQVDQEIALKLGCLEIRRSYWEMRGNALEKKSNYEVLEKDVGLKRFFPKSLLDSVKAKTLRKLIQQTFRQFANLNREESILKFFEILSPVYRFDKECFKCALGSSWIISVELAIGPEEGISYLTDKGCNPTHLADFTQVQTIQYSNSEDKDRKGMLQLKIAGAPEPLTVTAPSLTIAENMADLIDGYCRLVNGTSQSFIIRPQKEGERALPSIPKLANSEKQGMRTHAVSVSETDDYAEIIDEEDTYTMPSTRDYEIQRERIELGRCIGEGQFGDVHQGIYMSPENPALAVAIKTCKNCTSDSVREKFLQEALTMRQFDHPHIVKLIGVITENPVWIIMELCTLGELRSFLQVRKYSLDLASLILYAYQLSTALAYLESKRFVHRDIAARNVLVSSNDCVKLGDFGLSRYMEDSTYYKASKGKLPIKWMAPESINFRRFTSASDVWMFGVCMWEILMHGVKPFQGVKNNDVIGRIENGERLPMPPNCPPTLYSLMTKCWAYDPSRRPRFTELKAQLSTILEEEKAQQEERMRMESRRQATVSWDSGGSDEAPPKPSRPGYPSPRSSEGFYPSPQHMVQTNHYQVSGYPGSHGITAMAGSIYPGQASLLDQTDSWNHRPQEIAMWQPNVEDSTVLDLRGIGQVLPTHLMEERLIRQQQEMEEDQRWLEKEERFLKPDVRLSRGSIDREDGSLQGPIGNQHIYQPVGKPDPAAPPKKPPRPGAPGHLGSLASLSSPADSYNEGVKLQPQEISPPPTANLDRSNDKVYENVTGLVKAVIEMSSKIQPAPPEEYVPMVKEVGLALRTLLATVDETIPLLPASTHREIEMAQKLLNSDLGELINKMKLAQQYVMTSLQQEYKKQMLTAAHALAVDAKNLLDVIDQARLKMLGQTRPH
# [11] = target: Protein cereblon/Focal adhesion kinase 1 (Homo sapiens) (UniProt Q05397+Q96SW2); assay: PROTAC activity at CRBN/FAK in human A549 cells assessed as protein degradation at 10 nM incubated for 12 hrs by Western blot analysis relative to control; type: cell-based
# [12] = Stability in human plasma assessed as half life at 2 uM incubated for 120 mins by LC-MS/MS analysis; type: ADME, cell-free
# [13] = target: RAC-alpha serine/threonine-protein kinase (Homo sapiens, UniProt P31749); assay: Inhibition of AKT1 (unknown origin)
# Chain of RAC-alpha serine/threonine-protein kinase (P31749 whole entry): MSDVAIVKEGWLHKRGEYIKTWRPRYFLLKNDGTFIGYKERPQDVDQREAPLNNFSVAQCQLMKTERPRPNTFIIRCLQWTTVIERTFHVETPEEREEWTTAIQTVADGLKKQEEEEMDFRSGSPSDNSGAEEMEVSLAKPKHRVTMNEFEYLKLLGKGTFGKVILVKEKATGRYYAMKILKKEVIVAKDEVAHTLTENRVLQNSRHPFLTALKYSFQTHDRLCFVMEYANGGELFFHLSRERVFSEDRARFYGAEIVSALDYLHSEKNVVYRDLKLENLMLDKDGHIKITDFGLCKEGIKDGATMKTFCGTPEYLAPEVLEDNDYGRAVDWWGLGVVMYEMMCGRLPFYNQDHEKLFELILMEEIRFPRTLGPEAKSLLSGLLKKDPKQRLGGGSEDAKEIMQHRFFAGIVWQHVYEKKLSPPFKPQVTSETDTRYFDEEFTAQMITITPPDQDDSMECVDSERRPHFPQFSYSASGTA
# [14] = target: RAC-beta serine/threonine-protein kinase (Homo sapiens, UniProt P31751); assay: Inhibition of AKT2 (unknown origin)
# Chain of RAC-beta serine/threonine-protein kinase (P31751 whole entry): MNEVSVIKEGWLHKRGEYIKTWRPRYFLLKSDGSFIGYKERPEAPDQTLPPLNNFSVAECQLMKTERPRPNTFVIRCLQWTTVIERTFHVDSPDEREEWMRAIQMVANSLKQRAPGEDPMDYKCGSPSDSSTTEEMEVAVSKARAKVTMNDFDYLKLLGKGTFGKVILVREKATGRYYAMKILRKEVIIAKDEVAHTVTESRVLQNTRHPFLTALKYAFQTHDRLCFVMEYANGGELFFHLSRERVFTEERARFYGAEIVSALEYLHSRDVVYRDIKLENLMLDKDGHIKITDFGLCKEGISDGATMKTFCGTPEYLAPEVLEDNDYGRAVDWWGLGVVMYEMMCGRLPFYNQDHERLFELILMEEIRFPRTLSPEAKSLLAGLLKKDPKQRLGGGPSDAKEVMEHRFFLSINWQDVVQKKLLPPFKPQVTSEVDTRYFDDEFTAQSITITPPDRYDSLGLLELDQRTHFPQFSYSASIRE
# [15] = target: RAC-gamma serine/threonine-protein kinase (Homo sapiens, UniProt Q9Y243); assay: Inhibition of AKT3 (unknown origin)
# Chain of RAC-gamma serine/threonine-protein kinase (Q9Y243 whole entry): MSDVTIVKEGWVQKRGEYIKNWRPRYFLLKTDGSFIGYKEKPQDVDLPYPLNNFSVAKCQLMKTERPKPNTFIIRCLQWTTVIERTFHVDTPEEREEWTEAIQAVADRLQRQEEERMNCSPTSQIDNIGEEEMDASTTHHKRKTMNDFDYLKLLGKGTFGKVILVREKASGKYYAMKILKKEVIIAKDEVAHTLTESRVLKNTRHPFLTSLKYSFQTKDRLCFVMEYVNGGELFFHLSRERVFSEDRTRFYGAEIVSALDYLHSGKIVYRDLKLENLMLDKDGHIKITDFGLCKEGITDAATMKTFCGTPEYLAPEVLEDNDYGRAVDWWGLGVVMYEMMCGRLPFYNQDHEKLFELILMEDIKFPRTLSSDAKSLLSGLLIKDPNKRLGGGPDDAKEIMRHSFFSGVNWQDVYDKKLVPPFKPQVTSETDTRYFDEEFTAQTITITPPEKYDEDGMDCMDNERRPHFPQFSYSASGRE
# [16] = target: von Hippel-Lindau disease tumor suppressor/AKT (Homo sapiens, UniProt P31751+Q9Y243+P31749+P40337); assay: PROTAC activity at VHL/AKT in human SW620 cells assessed as protein degradation; type: cell-based
# Chain of von Hippel-Lindau disease tumor suppressor/AKT (P31751 whole entry): as the sequence (P31751 whole entry) above
# Chain of von Hippel-Lindau disease tumor suppressor/AKT (Q9Y243 whole entry): as the sequence (Q9Y243 whole entry) above
# Chain of von Hippel-Lindau disease tumor suppressor/AKT (P31749 whole entry): as the sequence (P31749 whole entry) above
# Chain of von Hippel-Lindau disease tumor suppressor/AKT (P40337 whole entry): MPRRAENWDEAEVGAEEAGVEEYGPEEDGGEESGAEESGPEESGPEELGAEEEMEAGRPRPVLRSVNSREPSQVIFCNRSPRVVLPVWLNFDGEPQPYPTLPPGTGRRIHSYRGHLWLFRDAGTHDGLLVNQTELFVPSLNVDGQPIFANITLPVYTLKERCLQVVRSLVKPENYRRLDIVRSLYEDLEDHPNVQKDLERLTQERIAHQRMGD
# SW-620 = assay: Inhibition of cell growth in human SW620 cells; type: functional
# [17] = target: von Hippel-Lindau disease tumor suppressor/GTPase KRas (Homo sapiens, UniProt P01116+P40337, G12C); assay: PROTAC activity at VHL/KRAS G12C mutant in human NCI-H2030 cells assessed as protein degradation incubated for 24 hrs by Western blot analysis; type: cell-based
# Chain of von Hippel-Lindau disease tumor suppressor/GTPase KRas (P01116 whole entry G12C, stated change not applied): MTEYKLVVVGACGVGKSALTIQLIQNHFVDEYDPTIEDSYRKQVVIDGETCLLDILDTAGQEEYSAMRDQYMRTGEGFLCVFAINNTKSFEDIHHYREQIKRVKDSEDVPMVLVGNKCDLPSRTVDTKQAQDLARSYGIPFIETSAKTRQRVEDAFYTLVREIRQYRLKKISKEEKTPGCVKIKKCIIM
# Chain of von Hippel-Lindau disease tumor suppressor/GTPase KRas (P40337 whole entry, stated change not applied): as the sequence (P40337 whole entry) above
smiles,measurement,setting,value
CC1CCC(C(C)C)C(OCC(=O)NCCS(=O)(=O)N2CCC(C(=O)Nc3ncc(SCc4ncc(C(C)(C)C)o4)s3)CC2)C1 (stereo unspecified),IC50,CWR22R,95 nM
same,DC50,[1],62 nM
same,DC50,Cyclin-T1,589 nM
Cc1sc2c(c1C)C(c1ccc(Cl)cc1)=N[C@H](CC(=O)NCCCCCNC(=O)CN1CCOc3cc(N(CCC#N)C(=O)CCl)ccc31)c1nnc(C)n1-2,IC50,[2],1400 nM
same,Emax,[3],94%
same,DC50,[4],250 nM
Cc1ncsc1-c1ccc(CNC(=O)C2CC(O)CN2C(=O)C(NC(=O)CCCCCCCCCCn2cc(COc3cc4ncnc(Nc5ccc(F)c(Cl)c5)c4cc3NC(=O)/C=C/CN3CCCCC3)nn2)C(C)(C)C)cc1 (stereo unspecified),IC50,[5],> 20000 nM
same,IC50,[6],> 20000 nM
same,IC50,[7],> 20000 nM
same,DC50,[8],3.57 nM
same,Emax,[9],91%
same,IC50,[10],6 nM
CN(c1ncccc1CNc1nc(Nc2ccc(N3CCN(CCCCCCC(=O)NCCNc4cccc5c4C(=O)N(C4CCC(=O)NC4=O)C5=O)CC3)cc2)ncc1C(F)(F)F)S(C)(=O)=O (stereo unspecified),IC50,Focal adhesion kinase 1,26.4 nM
same,Emax,[11],85%
same,half-life at 2 µM,[12],> 3.25 h
Cc1ncsc1-c1ccc(C(C)NC(=O)C2CC(O)CN2C(=O)C(NC(=O)CCCCCCCCCCNC(=O)CCc2cccc(-c3ccc4nc(-c5cccnc5N)n(-c5ccc(C6(N)CCC6)cc5)c4n3)c2)C(C)(C)C)cc1 (stereo unspecified),IC50,[13],798 nM
same,IC50,[14],90 nM
same,IC50,[15],544 nM
same,DC50,[16],23 nM
same,GI50,SW-620,3100 nM
C=C(F)C(=O)N1CCN(c2nc(OC[C@@H]3CCCN3CCCOCCC(=O)N[C@H](C(=O)N3CC(O)C[C@H]3C(=O)NCc3ccc(-c4scnc4C)cc3)C(C)(C)C)nc3c2CCN(c2cccc4cccc(Cl)c24)C3)C[C@@H]1CC#N (stereo partly specified),DC50,[17],590 nM
